The values below come from US6417225B1, “Prophylactic/therapeutic agents for atherosclerosis” (Chugai Seiyaku Kabushiki Kaisha, priority 1997, dated 2002).

One test concerns femoral atheroscleroses. The note with it: literature report; cited from earlier work.
Test [1] concerns Watanabe Heritable Hyperlipidemic (WHHL) rabbits. The test can be described thus: Effect on atherosclerosis in an in vivo atherosclerosis model (1): WHHL rabbits. Details: species or system rabbit. The note with it: for Lesions in the whole aorta (%) / Lesions in arch section (%): 6 months. From the text:
Effect on Atherosclerosis in an in vivo Atherosclerosis Model (1)
In order to evaluate the inhibitory effect of the compound of Example 1 on atherosclerosis in an in vivo atherosclerosis model, Watanabe Heritable Hyperlipidemic (WHHL) rabbits were used.
Specifically, 4 groups of 4 or 5 WHHL rabbits (Kbl: 2 to 3-month-old male) were conditioned for a week, and then 3 groups of them received 1% probucol and 0.2% and 0.5% Example 1 compound contained in a normal chow diet, respectively, by limited feeding (40 g/kg) once a day for 6 months. The other one group similarly received the normal chow diet containing neither probucol nor the compound of Example 1 and was used as a control.
After administration of the compound for 6 months, the aorta was removed from each of the animals and visualized to prepare a photograph of the inside of the aortic sample. White fat deposition area which represents arteriosclerotic lesions was determined by the image analysis on the photograph for each of three parts of the aortic sample (arch, chest and abdomen). From the results, the proportions (percentage) of the fat deposition area to the overall area for the arch section and the whole aorta were obtained. Four or five animals were used for each group for the evaluation.

The subject of test [2] is LDL receptor/apolipoprotein E double hetero-deficient mice. The test can be described thus: Effect on atherosclerosis in an in vivo atherosclerosis model (3): LDL receptor/Apo E hetero-deficient mice. The following applies: for Inhibitory effect on arteriosclerosis (in words): LDL receptor/Apo E hetero-deficient mice; for Area of Arteriosclerotic lesions (mm^2): female mice, 0.5% in high-fat diet, 6 months, arcus aorta. An excerpt: Effect on Atherosclerosis in an in vivo Atherosclerosis Model (3)
In order to evaluate the inhibitory effect of the compound of Example 1 on atherosclerosis in an in vivo atherosclerosis model, LDL receptor/apolipoprotein E double hetero-deficient (LDL receptor/Apo E hetero-deficient) mice were used.
One of the remaining two groups similarly received a high-fat feed containing neither probucol nor the compound of Example 1 and was used as a control and the other one group similarly received a normal, chow diet containing neither probucol nor the compound of Example 1.
After administration of the compound for 6 months, the arcus aorta was removed from each of the animals, transversely sectioned and stained with Sudan IV. The area of arteriosclerotic lesions was determined by an image analysis under an optical microscope. The average of the area of arteriosclerotic lesions in the aucus aortae was calculated for each animal. The number of animals used for the evaluation was 2 for the normal feed group and 5-6 for the other groups.

Test [3] deals with LDL receptor-deficient mice. The test can be described thus: Effect on atherosclerosis in an in vivo atherosclerosis model (2): LDL receptor-deficient mice. The following applies: for Inhibitory effect on arteriosclerosis (in words): LDL receptor-deficient mice; for Area of Arteriosclerotic lesions (mm^2): 0.5% in high-fat diet, 13 weeks, arcus aorta. From the text:
Effect on Atherosclerosis in an in vivo Atherosclerosis Model (2)
In order to evaluate the inhibitory effect of the compound of Example 1 on atherosclerosis in an in vivo atherosclerosis, LDL receptor-deficient mice were used.
One of the remaining two groups similarly received a high-fat diet containing neither probucol nor the compound of Example 1 and was used as a control and the other one group similarly received a normal, chow diet containing neither probucol nor the compound of Example 1.
After administration of the compound for 13 weeks, the arcus aorta was removed from each of the animals, transversely sectioned and stained with Sudan IV. The area of arteriosclerotic lesions was determined by an image analysis under an optical microscope. The average of the area of arteriosclerotic lesions in the aucus aortae was calculated for each animal. The number of animals used for the evaluation was 5 for the normal chow diet group consisting of female mice and 7-9 for the other groups.

Test [4] concerns LDL receptor-deficient mice. The test can be described thus: Effect on formation of xanthoma in an in vivo xanthoma model. The following applies: for Inhibitory effect on formation of xanthomas (in words): LDL receptor-deficient mice; for Xanthoma score: 0.5% in high-fat diet, 13 weeks, forefeet and palpebrae, total score. From the text:
Effect on Formation of Xanthoma in an in vivo Xanthoma Model
In order to evaluate the inhibitory effect of the compound of Example 1 on xanthoma in an in vivo xanthoma model, LDL receptor-deficient mice were used.
One of the remaining two groups similarly received a high-fat feed containing neither probucol nor the compound of Example 1 and was used as a control and the other one group similarly received a normal, chow diet feed containing neither probucol nor the compound of Example 1.
After administration of the compound for 13 weeks, xanthomas were scored in both forefeet and palpebrae based on the appearance thereof and the scores were totalized. The number of animals used for the evaluation was 5 for the normal feed group consisting of female mice and 7-9 for the other groups.

With `CC(C)(Sc1cc(C(C)(C)C)c(O)c(C(C)(C)C)c1)Sc1cc(C(C)(C)C)c(O)c(C(C)(C)C)c1` [Probucol, probucol, reference compound], the “Therapeutic effect on atherosclerosis in clinical tests (in words)” value with femoral atheroscleroses was “no therapeutic effect”. Further, the “Lesions in the whole aorta (%)” value in test [1] (1% in normal chow diet) turned out to be 25.2 ± 2.6 %. Moreover, the “Lesions in arch section (%)” value in test [1] (1% in normal chow diet, fat deposition area / overall area) turned out to be 53.9 ± 5.6 %. Further, the “Inhibitory effect on arteriosclerosis (in words)” value in test [2] and in test [3] was “not observed” throughout. The results for the “Area of Arteriosclerotic lesions (mm^2)” value in test [2], in test [3] (female mice) and in test [3] (male mice) were 0.451 mm^2, 0.245 mm^2 and 0.376 mm^2, respectively. Further, the “Inhibitory effect on formation of xanthomas (in words)” value in test [4] is recorded as “not observed”. For the same compound, the Xanthoma score in test [4] (female mice) is reported as 3.43 ± 0.30; in test [4] (male mice) it was 3.13 ± 0.30.
Consider `CCCCCC1(CCCCC)Cc2c(cc(C(C)(C)C)c(O)c2C(C)(C)C)O1` [Example 1, 4,6-di-t-butyl-2,2-di-n-pentyl-5-hydroxy-2,3-dihydrobenzofuran], for which the “Inhibitory effect on atherosclerosis (in words)” value in test [1] is “strong inhibitory effect”. The “Lesions in arch section (%)” value in test [1] (0.2% in normal chow diet) came out at 65.7 ± 3.7%; in test [1] (0.5% in normal chow diet) it was 52.6 ± 7.4 %. The “Lesions in the whole aorta (%)” value was determined as 44.3 ± 6.8 % in test [1] (0.2% in normal chow diet) and 37.4 ± 5.7 % in test [1] (0.5% in normal chow diet). Moreover, the “Atherosclerosis inhibitory effect compared with probucol (in words)” value in test [1] (at a half of the dosage of probucol) is “comparable to that of probucol”. Besides, the “Inhibitory effect on arteriosclerosis (in words)” value in test [2] is reported as “strong inhibitory effect”; in test [3], “exhibits an inhibitory effect”. Further, the “Area of Arteriosclerotic lesions (mm^2)” value in test [2] amounted to 0.150 mm^2; in test [3] (female mice), 0.192 mm^2; in test [3] (male mice), 0.185 mm^2. The “Inhibitory effect on formation of xanthomas (in words)” value in test [4] is “strong inhibitory effect”. Besides, the Xanthoma score in test [4] (female mice) amounted to 1.25 ± 0.25; in test [4] (male mice) it was 0.29 ± 0.20.
